# Data taken from patent US20120028897A1, “METHODS AND COMPOSITIONS FOR THE TREATMENT OF FLUID RETENTION DISORDERS” (priority 2008, published 2012).
# Key:
# [1] = system: anesthetized rats; assay: Renal potassium excretion during and after iv peptide infusion in anesthetized rats; type: in vivo, rat
# Protocol: (§1) Rats were not fasted prior to clearance experiments and ranged in weight from 250-340 g at the time of study. Anesthesia was induced with an intraperitoneal injection of pentobarbital sodium (55 mg/kg BW) and maintained at a surgical plane by intermittent intravenous supplementation. Core temperature was maintained at 37° C. by a servo-controlled, heated operating table. Animals breathed spontaneously through a PE240 cannula inserted into the trachea. A jugular vein was catheterized with PE50 cannula tubing for intravenous infusion of isotonic saline containing FITC-labeled inulin (0.4% W/V, Sigma, St Louis Mo.) and two PE10 cannulae, one for supplemental anesthetic and the other for peptide infusions (described below in the experimental protocol section). The ureters were exposed through a midline ventral incision and cannulated with PE10 tubing about one cm from each kidney. Urine was collected over 20 min periods and the volume estimated by weight. A femoral artery was cannulated with PE50 tubing for continuous measurement of arterial blood pressure and intermittent blood samples (50 μl), taken at the mid point of each urine collection.
# Arterial blood pressure was measured with a pressure transducer connected to a cardiovascular analyzer (Model 50110, Stoelting Instruments Wood Dale, Ill.). Left renal blood flow was measured in some rats with a flow probe positioned on the left renal artery and connected to a blood flow monitor (model 1 PRB probe and model T420 monitor, Transonic Systems Inc. Ithaca N.Y.). Arterial pressure, heart rate, and renal blood flow were digitized with an A/D converter (Keithley instruments, Cleveland, Ohio Model KUSB 3100) for display and storage on a Windows-based personal computer using open layers data acquisition software (Dtx_Ez, Data Translation Inc, Marlboro, Mass.). Sodium and potassium concentrations in plasma and urine were measured by flame photometry (Model 943, Instrumentation Laboratory Co., Lexington Mass.). Glomerular filtration rate (GFR) was measured as the renal clearance rate of FITC-labeled inulin
# (§2) After post-surgical equilibration (−60 min) and three 20 min control clearance periods, huUgnA or B was infused into the jugular vein at 10 μl/min over a 60 min period, followed by a return to isotonic saline for the remainder of the experiment. The infused doses of huUgnA were 12, 25, 50, 100, or 200 nmol/kg BW in a total of 38 rats; huUgnB doses were 9, 18, 35, 70, and 140 nmol/kg BW in 35 rats. A UgnA mimetic, E. coli STh (ST-core), was infused into a third group of 32 rats at doses of 17, 32, 66, 133, and 266 nmol/kg. Renal excretory responses to these infusions were slow to develop and long lasting, so clearance periods were continued for 2-3 hr after the termination of the peptide infusion. This protracted time course limited protocols to one dose of one peptide in each rat. A control group of 10 rats received isotonic saline at 10 μl/min in place of the peptide infusion, but was otherwise treated in the same way as the experimental groups.
# Sodium and potassium excretion rates are expressed as absolute values (UNaV and UKV) or factored by filtered load to provide fractional excretion (FENa and FEK). Glomerular filtration rate (GFR) was equated with inulin clearance. The net natriuretic response to peptide infusions was assessed by summing total Na excretion during infusion and post-infusion collection periods in each rat after subtraction of corresponding mean values obtained from the control group. The cumulative net excretion obtained in this way provides a measure of the natriuretic response to each dose of peptide infused. Results from both kidneys were averaged for each rat before calculating group means±sem.
# Group comparisons were made with one way analysis of variance (ANOVA) using peptide doses as column variables. […]
# [2] = system: anesthetized rats; assay: Urine flow rate during and after iv peptide infusion; type: in vivo, rat
# Protocol: as §1, §2
# Group comparisons were made with one way analysis of variance (ANOVA) using peptide doses as column variables. Columns were further divided into pre-infusion, infusion, and post infusion subgroups to facilitate post hoc testing with Bonferroni's method for selected multiple comparisons. Row variables were individual measurements from each clearance period for each rat. Responses were tested for statistical significance by comparing control values during the pre-infusion, infusion and post infusion collection periods with corresponding values obtained from peptide-infused rats. Each experimental group included 5 different doses of huUgnA, huUgnB, or ST-core. Thus, fifteen comparisons were required for each measured variable in each group.
structure (smiles),measurement,setting,value
"CC(C)C[C@H](NC(=O)[C@@H]1CSSC[C@@H]2NC(=O)[C@H](CC(C)C)NC(=O)[C@H](CCC(=O)O)NC(=O)[C@@H](NC(=O)[C@H](CC(=O)O)NC(=O)[C@H](CC(=O)O)NC(=O)[C@@H](N)CC(N)=O)CSSC[C@H](NC(=O)[C@H](C)NC(=O)[C@H](C(C)C)NC(=O)[C@H](CC(N)=O)NC(=O)[C@H](C(C)C)NC2=O)C(=O)N[C@@H]([C@@H](C)O)C(=O)NCC(=O)N1)C(=O)O (single isomer, unassigned) [huUgnA, Asn Asp Asp Cys Glu Leu Cys Val Asn Val Ala Cys Thr Gly Cys Leu, reference compound]",increase in UKV during or after infusion,[1]; any dose tested,no statistically significant increases
same,FEK (fractional potassium excretion),"[1]; huUgnA 12 nmol, Infuse",29.8 ± 3.6 % of filtered
same,UKV (potassium excretion),"[1]; huUgnA 12 nmol, Infusion",1097 ± 54 nEq/min/g KW
same,FEK (fractional potassium excretion),"[1]; huUgnA 12 nmol, Post-infuse",34.9 ± 2.7 % of filtered
same,UKV (potassium excretion),"[1]; huUgnA 12 nmol, Post-infuse",1299 ± 51 nEq/min/g KW
same,FEK (fractional potassium excretion),"[1]; huUgnA 12 nmol, Pre-infuse",18.8 ± 2.3 % of filtered
same,UKV (potassium excretion),"[1]; huUgnA 12 nmol, Pre-infuse",709 ± 74 nEq/min/g KW
same,FEK (fractional potassium excretion),"[1]; huUgnA 25 nmol, Infuse",40.7 ± 3.5 % of filtered
same,UKV (potassium excretion),"[1]; huUgnA 25 nmol, Infusion",1292 ± 80 nEq/min/g KW
same,FEK (fractional potassium excretion),"[1]; huUgnA 25 nmol, Post-infuse",46.5 ± 3.8 % of filtered
same,UKV (potassium excretion),"[1]; huUgnA 25 nmol, Post-infuse",1309 ± 68 nEq/min/g KW
same,FEK (fractional potassium excretion),"[1]; huUgnA 25 nmol, Pre-infuse",25.6 ± 2.4 % of filtered
same,UKV (potassium excretion),"[1]; huUgnA 25 nmol, Pre-infuse",780 ± 69 nEq/min/g KW
same,FEK (fractional potassium excretion),"[1]; huUgnA 50 nmol, Infuse",32.0 ± 2.7 % of filtered
same,UKV (potassium excretion),"[1]; huUgnA 50 nmol, Infusion",988 ± 66 nEq/min/g KW
same,FEK (fractional potassium excretion),"[1]; huUgnA 50 nmol, Post-infuse",36.3 ± 3.6 % of filtered
same,UKV (potassium excretion),"[1]; huUgnA 50 nmol, Post-infuse",1180 ± 57 nEq/min/g KW
same,FEK (fractional potassium excretion),"[1]; huUgnA 50 nmol, Pre-infuse",20.8 ± 2.1 % of filtered
same,UKV (potassium excretion),"[1]; huUgnA 50 nmol, Pre-infuse",722 ± 52 nEq/min/g KW
same,FEK (fractional potassium excretion),"[1]; huUgnA 100 nmol, Infuse",28.0 ± 3.5 % of filtered
same,UKV (potassium excretion),"[1]; huUgnA 100 nmol, Infusion",878 ± 60 nEq/min/g KW
same,FEK (fractional potassium excretion),"[1]; huUgnA 100 nmol, Post-infuse",29.9 ± 2.9 % of filtered
same,UKV (potassium excretion),"[1]; huUgnA 100 nmol, Post-infuse",970 ± 72 nEq/min/g KW
same,FEK (fractional potassium excretion),"[1]; huUgnA 100 nmol, Pre-infuse",19.3 ± 2.5 % of filtered
same,UKV (potassium excretion),"[1]; huUgnA 100 nmol, Pre-infuse",602 ± 51 nEq/min/g KW
same,FEK (fractional potassium excretion),"[1]; huUgnA 200 nmol, Infuse",40.8 ± 7.7 % of filtered
same,UKV (potassium excretion),"[1]; huUgnA 200 nmol, Infusion",1203 ± 161 nEq/min/g KW
same,UKV (potassium excretion),"[1]; huUgnA 200 nmol, Post-infuse",1380 ± 73 nEq/min/g KW
same,FEK (fractional potassium excretion),"[1]; huUgnA 200 nmol, Post-infuse, *** p<0.005 vs time control",57.5 ± 6.7*** % of filtered
same,FEK (fractional potassium excretion),"[1]; huUgnA 200 nmol, Pre-infuse",27.7 ± 5.9 % of filtered
same,UKV (potassium excretion),"[1]; huUgnA 200 nmol, Pre-infuse",860 ± 118 nEq/min/g KW
same,FEK vs control,"[1]; post infusion period, only after the highest doses",increased over control levels
same,V (urine flow rate),"[2]; huUgnA 12 nmol, Infusion",2.34 ± 0.14 μl/min/g KW
same,V (urine flow rate),"[2]; huUgnA 12 nmol, Post-infuse",2.73 ± 0.14 μl/min/g KW
same,V (urine flow rate),"[2]; huUgnA 12 nmol, Pre-infuse",2.07 ± 0.23 μl/min/g KW
same,V (urine flow rate),"[2]; huUgnA 25 nmol, Infusion",2.98 ± 0.28 μl/min/g KW
same,V (urine flow rate),"[2]; huUgnA 25 nmol, Post-infuse, * p<0.05 vs time control",3.53 ± 0.25* μl/min/g KW
same,V (urine flow rate),"[2]; huUgnA 25 nmol, Pre-infuse",2.13 ± 0.17 μl/min/g KW
same,V (urine flow rate),"[2]; huUgnA 50 nmol, Infusion",2.32 ± 0.16 μl/min/g KW
same,V (urine flow rate),"[2]; huUgnA 50 nmol, Post-infuse",3.07 ± 0.20 μl/min/g KW
same,V (urine flow rate),"[2]; huUgnA 50 nmol, Pre-infuse",2.01 ± 0.13 μl/min/g KW
same,V (urine flow rate),"[2]; huUgnA 100 nmol, Infusion",2.48 ± 0.26 μl/min/g KW
same,V (urine flow rate),"[2]; huUgnA 100 nmol, Post-infuse",2.67 ± 0.23 μl/min/g KW
same,V (urine flow rate),"[2]; huUgnA 100 nmol, Pre-infuse",1.76 ± 0.22 μl/min/g KW
same,V (urine flow rate),"[2]; huUgnA 200 nmol, Infusion",2.84 ± 0.40 μl/min/g KW
same,V (urine flow rate),"[2]; huUgnA 200 nmol, Post-infuse, ** p<0.01 vs time control",4.12 ± 0.35** μl/min/g KW
same,V (urine flow rate),"[2]; huUgnA 200 nmol, Pre-infuse",2.14 ± 0.39 μl/min/g KW
